Among the data in ChEMBL document CHEMBL5257095, “Synthesis and biological evaluation of novel pteridin-7(8H)-one derivatives as potent CDK2 inhibitors” (Bioorg Med Chem Lett, 2023) are inhibition, IC50 and Ratio IC50 values, retold here.

The target of assay [1] is Cyclin-dependent kinase 2/cyclin E (Homo sapiens) (UniProt P24864+P24941+O96020). In words: Inhibition of CDK2/Cyclin E (unknown origin) at 500 nM. In kind it is protein-complex assay.
For assay [2], the system named is MV4-11. Put plainly: Antiproliferative activity against human MV4-11 cells assessed as inhibition of cell proliferation. The class given is functional, cell-based.
Assay [3] addresses Cyclin-dependent kinase 2/cyclin E (Homo sapiens, UniProt P24941). In words: Inhibition of CDK2/Cyclin E (unknown origin). In kind it is protein-complex assay.
Assay [4] has as its system HCT-116. In words: Antiproliferative activity against human HCT-116 cells assessed as inhibition of cell proliferation. The class given is functional, cell-based.
Assay [5] has as its target CDK6/cyclin D3 (Homo sapiens, UniProt Q00534). In words: Inhibition of CDK6/Cyclin D3 (unknown origin). In kind it is protein-complex assay.
The species entered for assay [6] is Homo sapiens. In words: Selectivity ratio of IC50 for inhibition of CDK4/Cyclin D1 (unknown origin) to IC50 for inhibition of CDK2/Cyclin E (unknown origin).
Assay [7] deals with Cyclin-dependent kinase 4/cyclin D1 (Homo sapiens, UniProt P11802). Put plainly: Inhibition of CDK4/Cyclin D1 (unknown origin). The class given is protein-complex assay.
Assay [8] is filed under the species Homo sapiens. In words: Selectivity ratio of IC50 for inhibition of CDK6/Cyclin D3 (unknown origin) to IC50 for inhibition of CDK2/Cyclin E (unknown origin).

The structures appear in SMILES notation.

As a reminder, the inhibition is the share of the control response that was lost under treatment. High values mean a strong effect, low ones a weak effect. Broadly, the IC50 is the point on the concentration scale where inhibition reaches its midpoint.

Cyclin-dependent kinase 4/cyclin D1, sequence (P11802 whole entry): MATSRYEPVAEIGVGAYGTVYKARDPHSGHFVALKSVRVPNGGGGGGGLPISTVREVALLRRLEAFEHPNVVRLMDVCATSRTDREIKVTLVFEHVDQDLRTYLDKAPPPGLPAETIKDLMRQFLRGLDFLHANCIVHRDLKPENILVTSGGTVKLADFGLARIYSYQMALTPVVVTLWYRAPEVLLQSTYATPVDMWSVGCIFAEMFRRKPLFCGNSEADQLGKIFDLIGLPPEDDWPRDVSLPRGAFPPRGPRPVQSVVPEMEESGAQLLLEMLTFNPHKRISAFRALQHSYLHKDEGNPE
Cyclin-dependent kinase 4/cyclin D1, sequence (P24385 whole entry, further chain): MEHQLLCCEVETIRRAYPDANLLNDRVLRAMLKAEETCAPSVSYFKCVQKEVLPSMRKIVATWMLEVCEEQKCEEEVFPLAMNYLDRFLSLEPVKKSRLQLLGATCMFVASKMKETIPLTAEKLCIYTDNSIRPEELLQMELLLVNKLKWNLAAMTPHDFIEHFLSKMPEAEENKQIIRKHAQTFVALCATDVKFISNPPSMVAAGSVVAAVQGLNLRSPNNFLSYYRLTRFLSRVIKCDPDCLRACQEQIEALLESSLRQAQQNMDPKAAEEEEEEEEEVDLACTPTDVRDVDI
CDK6/cyclin D3, sequence (P30281 whole entry): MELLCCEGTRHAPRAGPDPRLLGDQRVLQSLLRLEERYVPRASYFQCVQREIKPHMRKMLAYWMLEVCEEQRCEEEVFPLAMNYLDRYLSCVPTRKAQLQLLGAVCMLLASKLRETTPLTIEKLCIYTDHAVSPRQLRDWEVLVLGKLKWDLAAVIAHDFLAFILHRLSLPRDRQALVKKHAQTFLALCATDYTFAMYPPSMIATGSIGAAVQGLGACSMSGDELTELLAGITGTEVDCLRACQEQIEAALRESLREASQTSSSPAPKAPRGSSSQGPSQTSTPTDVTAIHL
CDK6/cyclin D3, sequence (Q00534 whole entry): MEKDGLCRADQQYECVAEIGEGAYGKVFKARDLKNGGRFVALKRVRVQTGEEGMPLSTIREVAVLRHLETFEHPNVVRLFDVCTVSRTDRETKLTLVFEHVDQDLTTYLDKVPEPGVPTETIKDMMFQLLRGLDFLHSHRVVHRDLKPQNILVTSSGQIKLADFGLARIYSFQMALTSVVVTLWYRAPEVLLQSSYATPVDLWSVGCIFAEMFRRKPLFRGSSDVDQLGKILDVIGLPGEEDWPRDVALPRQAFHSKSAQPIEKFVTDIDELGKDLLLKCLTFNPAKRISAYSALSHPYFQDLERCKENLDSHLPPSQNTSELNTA

As to `CN(C)S(=O)(=O)N1CCC(Nc2nc3cnc(NN)nc3n(C3CCCC3)c2=O)CC1`, in assay [1], the inhibition was 27.1%.

On to `CCS(=O)(=O)N1CCC(Nc2ncc3nc(O)c(=O)n(C4CCCC4)c3n2)CC1`, for which the IC50 in assay [2] was determined as 9150 nM; in assay [3] it was 1040 nM; in assay [4] it was 9320 nM. Moreover, in assay [1], the inhibition was determined as 65.4%.

Compound `CS(=O)(=O)N1CCC(Nc2ncc3nc(O)c(=O)n([C@@H]4CCC[C@H]4O)c3n2)CC1` displayed an inhibition in assay [1] of 43%.

The compound `COc1nc2cnc(NC3CCN(S(=O)(=O)N(C)C)CC3)nc2n(C2CCCC2)c1=O` yielded an inhibition in assay [1] of 36.1%.

With `CS(=O)(=O)c1ccc(Nc2ncc3nc(O)c(=O)n(C4CCCC4)c3n2)cc1`, the inhibition in assay [1] is 30%.

Take `CS(=O)(=O)c1ccc(Nc2ncc3c(n2)n(C2CCCC2)c(=O)c2nncn23)cc1`: in assay [1], the inhibition came out at 1.7%.

Compound `CN(C)S(=O)(=O)N1CCC(Nc2ncc3nc(O)c(=O)n(C4CCCC4)c3n2)CC1` came in with an inhibition in assay [1] of 15.8%.

`O=c1c(O)nc2cnc(NC3CCN(S(=O)(=O)C4CC4)CC3)nc2n1C1CCCC1` gave an inhibition in assay [1] of 20.1%.

Turning to `COc1nc2cnc(NC3CCN(S(C)(=O)=O)CC3)nc2n(C2CCCC2)c1=O`, the half-maximal inhibitory concentration (IC50) in assay [2] was 2570 nM; in assay [3] it was 160 nM; in assay [4] it was 1930 nM. The same compound yielded an inhibition in assay [1] of 82.4%.

On to `CCC(C)n1c(=O)c(OC)nc2cnc(NC3CCN(S(C)(=O)=O)CC3)nc21` (stereo not given), for which the IC50 in assay [2] was found to be 7810 nM; in assay [3], 500 nM; in assay [4] it was 6340 nM. Further, in assay [1], the inhibition was 70.2%.

Take `CN(C)S(=O)(=O)N1CCC(Nc2nc3cnc(NCC(F)F)nc3n(C3CCCC3)c2=O)CC1`: the inhibition in assay [1] stood at 38.2%.

For the compound `CN1CCN(c2ccc(Nc3ncc4nc(O)c(=O)n(C5CCCC5)c4n3)cc2)CC1`, the half-maximal inhibitory concentration (IC50) in assay [2] worked out at 4920 nM; in assay [3], 1600 nM; in assay [4], 6230 nM. In assay [1], the inhibition turned out to be 48.3%.

Regarding `CCC(CC)n1c(=O)c(O)nc2cnc(NC3CCN(S(C)(=O)=O)CC3)nc21`, the inhibition in assay [1] was determined as 39.2%.

On to `CS(=O)(=O)c1ccc(Nc2ncc3nc(NN)c(=O)n(C4CCCC4)c3n2)cc1`, for which the figures for the IC50 in assay [2], in assay [3] and in assay [4] were 1170 nM, 920 nM and 3430 nM, respectively. In assay [1], this compound showed an inhibition of 67.3%.

Turning to `CNc1nc2cnc(NC3CCN(S(=O)(=O)C4CC4)CC3)nc2n(C2CCCC2)c1=O`, in assay [1], the inhibition is 9.2%.

In the case of `CCS(=O)(=O)N1CCC(Nc2ncc3nc(NC)c(=O)n(C4CCCC4)c3n2)CC1`, in assay [1], the inhibition came to 45.4%.

Consider `CS(=O)(=O)N1CCC(Nc2ncc3nc(O)c(=O)n(C4CCNC4)c3n2)CC1` (stereo not given), for which the inhibition in assay [1] came to 4.1%.

Regarding `C[C@@]1(O)CCC[C@H]1n1c(=O)c(C(F)F)cc2cnc(NC3CCN(S(C)(=O)=O)CC3)nc21` [EBVACICLIB], the IC50 in assay [2] was determined as 570 nM; in assay [4] it was 220 nM. Also, the inhibition in assay [1] came to 98.8%.

Turning to `CCNc1ncc2nc(NC3CCN(S(C)(=O)=O)CC3)c(=O)n(C3CCCC3)c2n1`, the inhibition in assay [1] came to 34.4%.

Turning to `CCC(CC)n1c(=O)c(OC)nc2cnc(NC3CCN(S(C)(=O)=O)CC3)nc21`, the IC50 in assay [2] worked out at 4880 nM; in assay [3], 350 nM; in assay [4], 5500 nM. This compound also had an inhibition in assay [1] of 79.6%.

For `CS(=O)(=O)N1CCC(Nc2nc3cnc(NCC(F)F)nc3n(C3CCCC3)c2=O)CC1`, the inhibition in assay [1] came out at 35.1%.

In turn, `CS(=O)(=O)N1CCC(Nc2nc3cnc(NN)nc3n(C3CCCC3)c2=O)CC1` registered an inhibition in assay [1] of 26.8%.

With `COc1nc2cnc(NC3CCN(S(C)(=O)=O)CC3)nc2n(C2CCOCC2)c1=O`, the IC50 in assay [2] is 4260 nM; in assay [3] it was 1700 nM; in assay [4] it was 5010 nM. This compound yielded an inhibition in assay [1] of 45.8%.

`CCNc1ncc2nc(NC3CCN(S(=O)(=O)N(C)C)CC3)c(=O)n(C3CCCC3)c2n1` had an inhibition in assay [1] of 43.2%.

Consider `CS(=O)(=O)N1CCC(Nc2ncc3nc(NN)c(=O)n(C4CCCC4)c3n2)CC1`, for which the IC50 in assay [2] amounted to 1950 nM; in assay [3] it was 130 nM; in assay [5] it was 460 nM; in assay [7], 340 nM; in assay [4], 1620 nM. Moreover, the Ratio IC50 in assay [6] stood at 3; in assay [8] it was 4. Besides, in assay [1], the inhibition came out at 85.6%.

`CCC(C)n1c(=O)c(O)nc2cnc(NC3CCN(S(C)(=O)=O)CC3)nc21` (stereo not given): the inhibition in assay [1] was determined as 23.4%.

Compound `CNc1nc2cnc(NC3CCN(S(C)(=O)=O)CC3)nc2n(C2CCCC2)c1=O` registered an inhibition in assay [1] of 46.2%.

`CS(=O)(=O)N1CCC(Nc2ncc3c(n2)n(C2CCCC2)c(=O)c2nncn23)CC1`: in assay [1], the inhibition turned out to be 14.2%.

In assay [1], `CS(=O)(=O)N1CCC(Nc2ncc3nc(NCC(F)F)c(=O)n(C4CCCC4)c3n2)CC1` showed an inhibition of 51.2%.

The compound `CCNc1nc2cnc(NC3CCN(S(C)(=O)=O)CC3)nc2n(C2CCCC2)c1=O` showed an inhibition in assay [1] of 20.3%.

Consider `CS(=O)(=O)N1CCC(Nc2ncc3nc(O)c(=O)n(C4CCOCC4)c3n2)CC1`, for which, in assay [1], the inhibition came to 9.3%.

Take `CS(=O)(=O)N1CCC(Nc2ncc3nc(O)c(=O)n(C4CCCC4)c3n2)CC1`: the half-maximal inhibitory concentration (IC50) in assay [2] was determined as 13900 nM; in assay [3], 1220 nM; in assay [4] it was 10600 nM. The compound further came in with an inhibition in assay [1] of 62.2%.
